Reference: publication PMC11243530 (Molecules, 2024)
Read-outs that look alike come from different tables or passages of the source. Positions of bridges follow the written chain, without caps; N, C: chain ends. Non-standard residues stand in square brackets, D forms with d. Residues, ends and D or L forms follow the SMILES beside them. No end group written: not given here. *: point of attachment. X1 = CC(=O)N[C@@H](Cc1ccccc1)C(=O)N[C@H]1Cc2ccc(cc2)OC/C=C/COc2ccc(cc2)C[C@@H](C(=O)*)NC1=O; AllylGly = C=CC[C@H](N)C(=O)O

Assays:
[1] = molecular target: T1, cloned rat KOR (Rattus norvegicus, UniProt P34975); conditions: read-out: KOR Ki ± SEM; cited from earlier work
T1 construct: expressed in transfected cells

[2] = molecular target: KOR; parameters: method as in PMID 34162205; conditions: ref [23]; cited from earlier work
[3] = tested on: KOR; parameters: method as in PMID 34162205; conditions: ref [23]; read-out: KOR agonist potency EC50; cited from earlier work
[4] = molecular target: T1, cloned rat KOR; experiment: Radioligand binding, competitive inhibition of [^3H]diprenorphine, KOR
[5] = molecular target: T2, cloned rat MOR (Rattus norvegicus, UniProt P33535); experiment: Radioligand binding, competitive inhibition of [^3H]DAMGO, MOR
T2 construct: expressed in transfected cells

[6] = tested on: KOR; experiment: Dynorphin-stimulated [^35S]GTPγS assay, KOR antagonism (Schild analysis); assay type: biochemical; conditions: for agonist activity / type of antagonism at KOR: [^35S]GTPγS binding assay
[7] = tested on: KOR; conditions: following a single injection; ref [4]; cited from earlier work
From the text: Recently, antagonists of the kappa opioid receptor (KOR) have attracted significant attention due to their potential use in treating various central nervous system (CNS) disorders, especially mood disorders and substance abuse. […] Consequently, there has been a growing interest in KOR antagonists, including peptide KOR antagonists, with m ...

[8] = tested on: KOR; conditions: [^35S]GTPγS binding assay; known comparator; cited from earlier work
[9] = molecular target: ẟ opioid receptor (DOR); conditions: ref [6]; cited from earlier work
[10] = tested on: KOR (antagonism of U50,488 antinociception); conditions: mouse 55 °C warm-water tail withdrawal; i.c.v.; ref [7]; cited from earlier work
[11] = tested on: stress-induced reinstatement of cocaine-seeking behavior; conditions: mouse conditioned place preference; i.c.v.; ref [7]; cited from earlier work
[12] = tested on: proteases; conditions: linear peptide; general statement; cited from earlier work
[13] = tested on: KOR; conditions: ref [6]; cited from earlier work

3: monocyclic arodyn analog, RCM cyclization between Tyr(All) residues in positions 2 and 3 (FYYRLRRARPK) [Peptide 3]
Ki [1]: 55.4 ± 4.1 nM

dynorphin A-(1–13)-NH2: KOR agonist reference peptide (YGGFLRRIRPKLK-NH2; UniProt P01213 207-219, looked up, fragment)
Ki [2]: 0.3 nM | EC50 [3]: 2.8 nM

CC(=O)N[C@@H](Cc1ccccc1)C(=O)N[C@H]1Cc2ccc(cc2)OC/C=C/COc2ccc(cc2)C[C@@H](C(=O)N[C@@H](CCCNC(=N)N)C(=O)N[C@H]2CC=CC[C@@H](C(=O)N[C@@H](CCCNC(=N)N)C(=O)N3CCC[C@H]3C(=O)N[C@@H](CCCCN)C(N)=O)NC(=O)[C@H](CCCNC(=N)N)NC(=O)[C@H](CCCNC(=N)N)NC2=O)NC1=O [Peptide 4] (X1-R[AllylGly]RR[AllylGly]RPK-NH2; staple 2-5)
Ki [4]: 26.4 ± 5.9 nM | KOR selectivity over MOR ([4]; MOR Ki / KOR Ki): 97 fold | Ki Ratio (MOR/KOR) ([4]; MOR Ki / KOR Ki): 97 | Ki [5]: 2570 ± 500 nM | agonist activity / type of antagonism at KOR [6]: did not exhibit appreciable agonist activity and functioned as a potent competitive KOR antagonist | agonist activity / type of antagonism at KOR ([6]; listed as bicyclic analog): exhibits potent KOR antagonism | Kb ([6]; dynorphin A-(1–13)-NH2-stimulated [^35S]GTPγS binding, KOR membranes, peptidase inhibitors present, four concentrations 1–1000 nM of 4, Schild analysis, mean values from 4 independent experiments): 0.9 nM | KOR affinity and KOR antagonism relative to monocyclic analogs ([6]; dynorphin-stimulated [^35S]GTPγS assay and KOR binding): comparable to monocyclic analogs

CC(C)[C@@H](CN1CC[C@@](C)(c2cccc(O)c2)[C@@H](C)C1)NC(=O)[C@H]1Cc2ccc(O)cc2CN1 [JDTic]
duration of action [7]: exhibited prolonged effects, with their action extending from days to weeks

Ac[Phe^1,2,3,Arg^4,D-Ala^8]dynorphin A-(1–11)-NH2 [arodyn]
agonist activity / type of antagonism at KOR [8]: did not exhibit appreciable agonist activity and functioned as a potent competitive KOR antagonist | Ki [9]: > 5 µM | antagonism of antinociception produced by U50,488 [10]: antagonized antinociception produced by the KOR-selective agonist U50,488 | reinstatement of cocaine-seeking behavior induced by stress [11]: prevented the reinstatement of cocaine-seeking behavior induced by stress | susceptibility to proteolysis [12]: susceptible to rapid breakdown by proteases | KOR antagonism in vitro [13]: potent KOR antagonist in vitro
